Earlier results on two compounds are cited in PubChem BioAssay AID1259409 (Chemical Carcinogenesis Research Information System (CCRIS), 2018).

For this data set, the system named is rodent chemically induced tumor inhibition, incidence and multiplicity. Kind of data set: CCRIS tumor inhibitor studies. From the text:
The CCRIS database contains chemical records with carcinogenicity, mutagenicity, tumor promotion, and tumor inhibition test results. It was developed by the National Cancer Institute (NCI). Data are derived from studies cited in primary journals, current awareness tools, NCI reports, and other sources. Test results have been reviewed by experts in carcinogenesis and mutagenesis.
CCRIS provides historical information from the years 1985 - 2011. It is no longer updated.
This is an archive assay for CCRIS tumor inhibitor studies.

Consider `CC(=O)N[C@@H](CS)C(=O)O`, for which the “tumour outcome (control, treated, inhibition, significance)” value is 100%, 100%, 0%, not significant (Carcinogen: 4-(METHYLNITROSAMINO)-1-(3-PYRIDYL)-1-BUTANONE [64091-50-5], Dose [Inhibitor]: 80 MMOL/KG IN DIET FOR 17 WK BEGINNING 1 WK PRIOR TO FIRST CARCINOGEN DOSE (STUDY DURATION: 17 WK), Route [Inhibitor]: ORAL, Species: MOUSE, Strain/Sex: A/J/FEMALE, Target Tissue: Type of Lesion: LUNG: ADENOMA, Dose [Carcinogen]: 10 UMOL ONCE 1 WK POST FIRST INHIBITOR DOSE (STUDY DURATION: 17 WK), Promoter: NONE); 100%, 93%, 7%, not significant (Carcinogen: 4-(METHYLNITROSAMINO)-1-(3-PYRIDYL)-1-BUTANONE [64091-50-5], Dose [Inhibitor]: 80 MMOL/KG IN DIET FOR 53 WK BEGINNING 1 WK PRIOR TO FIRST CARCINOGEN DOSE (STUDY DURATION: 53 WK), Route [Inhibitor]: ORAL, Species: MOUSE, Strain/Sex: A/J/FEMALE, Target Tissue: Type of Lesion: LUNG: ADENOMA OR ADENOCARCINOMA, Dose [Carcinogen]: 10 UMOL ONCE 1 WK POST FIRST INHIBITOR DOSE (STUDY DURATION: 53 WK), Promoter: NONE); 100%, 100%, 0%, not significant (Carcinogen: 4-(METHYLNITROSAMINO)-1-(3-PYRIDYL)-1-BUTANONE [64091-50-5], Dose [Inhibitor]: 160 MMOL/KG IN DIET FOR 17 WK BEGINNING 1 WK PRIOR TO FIRST CARCINOGEN DOSE (STUDY DURATION: 17 WK), Route [Inhibitor]: ORAL, Species: MOUSE, Strain/Sex: A/J/FEMALE, Target Tissue: Type of Lesion: LUNG: ADENOMA, Dose [Carcinogen]: 10 UMOL ONCE 1 WK POST FIRST INHIBITOR DOSE (STUDY DURATION: 17 WK), Promoter: NONE); 100%, 97%, 3%, not significant (Carcinogen: 4-(METHYLNITROSAMINO)-1-(3-PYRIDYL)-1-BUTANONE [64091-50-5], Dose [Inhibitor]: 160 MMOL/KG IN DIET FOR 53 WK BEGINNING 1 WK PRIOR TO FIRST CARCINOGEN DOSE (STUDY DURATION: 53 WK), Route [Inhibitor]: ORAL, Species: MOUSE, Strain/Sex: A/J/FEMALE, Target Tissue: Type of Lesion: LUNG: ADENOMA OR ADENOCARCINOMA, Dose [Carcinogen]: 10 UMOL ONCE 1 WK POST FIRST INHIBITOR DOSE (STUDY DURATION: 53 WK), Promoter: NONE); 22/33 (67%), 22/36 (61%), 9%, not significant (Carcinogen: 4-(METHYLNITROSAMINO)-1-(3-PYRIDYL)-1-BUTANONE, 64091-91-4, Dose [Inhibitor]: 0, 6528 PPM IN DIET FOR 22 WK BEGINNING 1 WK PRIOR TO CARCINOGEN TREATMENT (STUDY DURATION: 98 WK), Route [Inhibitor]: ORAL, Species: RAT, Strain/Sex: F344/MALE, Target Tissue: Type of Lesion: LUNG: TUMOR, Dose [Carcinogen]: 1.5 MG/KG BW 3/WK FOR 20 WK, Promoter: NONE USED); 28/36 (78%), 22/36 (61%), 22%, not significant (Carcinogen: 4-(METHYLNITROSAMINO)-1-(3-PYRIDYL)-1-BUTANONE, 64091-91-4, Dose [Inhibitor]: 0, 6528 PPM IN DIET FOR 22 WK BEGINNING 1 WK PRIOR TO CARCINOGEN TREATMENT (STUDY DURATION: 98 WK), Route [Inhibitor]: ORAL, Species: RAT, Strain/Sex: F344/MALE, Target Tissue: Type of Lesion: NASAL CAVITY: TUMOR, Dose [Carcinogen]: 1.5 MG/KG BW 3/WK FOR 20 WK, Promoter: NONE USED). Moreover, the “tumour outcome (control, treated, inhibition, significance)” value (Carcinogen: 4-(METHYLNITROSAMINO)-1-(3-PYRIDYL)-1-BUTANONE, 64091-91-4, Dose [Inhibitor]: 0, 13056 PPM IN DIET FOR 22 WK BEGINNING 1 WK PRIOR TO CARCINOGEN DOSE (STUDY DURATION: 98 WK), Route [Inhibitor]: ORAL, Species: RAT, Strain/Sex: F344/MALE, Target Tissue: Type of Lesion: NASAL CAVITY: TUMOR, Dose [Carcinogen]: 1.5 MG/KG BW 3/WK FOR 20 WK, Promoter: NONE USED) is listed as 28/36 (78%), 17/36 (47%), 40%, not significant; the “tumour outcome (control, treated, inhibition, significance)” value (Carcinogen: 4-(METHYLNITROSAMINO)-1-(3-PYRIDYL)-1-BUTANONE, 64091-91-4, Dose [Inhibitor]: 0, 13056 PPM IN DIET FOR 22 WK BEGINNING 1 WK PRIOR TO CARCINOGEN TREATMENT (STUDY DURATION: 98 WK), Route [Inhibitor]: ORAL, Species: RAT, Strain/Sex: F344/MALE, Target Tissue: Type of Lesion: LUNG: TUMOR, Dose [Carcinogen]: 1.5 MG/KG BW 3/WK FOR 20 WK, Promoter: NONE USED) is 22/33 (67%), 21/36 (58%), 13%, not significant; the “tumour outcome (control, treated, inhibition, significance)” value (Carcinogen: 7,12-DIMETHYLBENZ[A]ANTHRACENE, 57-97-6, Dose [Inhibitor]: 0, 4000 PPM IN DIET FOR DURATION OF STUDY BEGINNING 1 WK PRIOR TO CARCINOGEN DOSE (STUDY DURATION: 107 D), Route [Inhibitor]: ORAL, Species: RAT, Strain/Sex: SPRAGUE-DAWLEY/FEMALE, Target Tissue: Type of Lesion: MAMMARY GLAND: ADENOCARCINOMA, Dose [Carcinogen]: 12 MG ONCE, Promoter: NONE USED) is listed as 92%, 88%, 4%, not significant; the “tumour outcome (control, treated, inhibition, significance)” value (Carcinogen: 7,12-DIMETHYLBENZ[A]ANTHRACENE, 57-97-6, Dose [Inhibitor]: 0, 8000 PPM IN DIET FOR DURATION OF STUDY BEGINNING 1 WK PRIOR TO CARCINOGEN DOSE (STUDY DURATION: 107 D), Route [Inhibitor]: ORAL, Species: RAT, Strain/Sex: SPRAGUE-DAWLEY/FEMALE, Target Tissue: Type of Lesion: MAMMARY GLAND: ADENOCARCINOMA, Dose [Carcinogen]: 12 MG ONCE, Promoter: NONE USED) is 92%, 92%, 0%, not significant; the “tumour outcome (control, treated, inhibition, significance)” value (Carcinogen: AZOXYMETHANE, 25843-45-2, Dose [Inhibitor]: 0, 600 PPM IN DIET BEGINNING 2 WK PRIOR TO CARCINOGEN TREATMENT AND CONTINUING FOR DURATION OF STUDY (STUDY DURATION: 56, Route [Inhibitor]: ORAL, Species: RAT, Strain/Sex: F344/MALE, Target Tissue: Type of Lesion: COLON: INVASIVE ADENOCARCINOMA, Dose [Carcinogen]: 15 MG/KG 1/WK FOR 2 WK, Promoter: NONE USED) is on record as 34%, 22%, 35%, not significant; the “tumour outcome (control, treated, inhibition, significance)” value (Carcinogen: AZOXYMETHANE, 25843-45-2, Dose [Inhibitor]: 0, 600 PPM IN DIET BEGINNING 2 WK PRIOR TO CARCINOGEN TREATMENT AND CONTINUING FOR DURATION OF STUDY (STUDY DURATION: 56, Route [Inhibitor]: ORAL, Species: RAT, Strain/Sex: F344/MALE, Target Tissue: Type of Lesion: COLON: NONINVASIVE ADENOCARCINOMA, Dose [Carcinogen]: 15 MG/KG 1/WK FOR 2 WK, Promoter: NONE USED) is reported as 53%, 44%, 17%, not significant. The “tumour outcome (control, treated, inhibition, significance)” value runs as follows: (Carcinogen: AZOXYMETHANE, 25843-45-2, Dose [Inhibitor]: 0, 1200 PPM IN DIET BEGINNING 2 WK PRIOR TO CARCINOGEN TREATMENT AND CONTINUING FOR DURATION OF STUDY (STUDY DURATION: 5, Route [Inhibitor]: ORAL, Species: RAT, Strain/Sex: F344/MALE, Target Tissue: Type of Lesion: COLON: INVASIVE ADENOCARCINOMA, Dose [Carcinogen]: 15 MG/KG 1/WK FOR 2 WK, Promoter: NONE USED) 34%, 19%, 44%, not significant; (Carcinogen: AZOXYMETHANE, 25843-45-2, Dose [Inhibitor]: 0, 1200 PPM IN DIET BEGINNING 2 WK PRIOR TO CARCINOGEN TREATMENT AND CONTINUING FOR DURATION OF STUDY (STUDY DURATION: 5, Route [Inhibitor]: ORAL, Species: RAT, Strain/Sex: F344/MALE, Target Tissue: Type of Lesion: COLON: NONINVASIVE ADENOCARCINOMA, Dose [Carcinogen]: 15 MG/KG 1/WK FOR 2 WK, Promoter: NONE USED) 53%, 42%, 21%, not significant; (Carcinogen: DIETHYLNITROSAMINE, 55-18-5, Dose [Inhibitor]: 0, 30 MG/KG BW BY INTRAPERITONEAL INJECTION ON DAYS 13, 14 AND 15 OF AGE THEN 2 G/KG DIET FROM 21 TO 161 DAYS OF AGE (ST, Route [Inhibitor]: INTRAPERITONEAL, ORAL, Species: MOUSE, Strain/Sex: C3H/MALE, Target Tissue: Type of Lesion: LIVER: ADENOMA, Dose [Carcinogen]: 4 MG/KG IN TRICAPRYLIN ONCE ON DAY 15 OF AGE, Promoter: NONE USED) 100%, 100%, 0%, not significant.
As for `C=CC1=C(C)C2=NC1=CC1=NC(=CC3=C(C)C4=C(O)[C@H](C(=O)OC)C(=C5NC(=C2)[C@@H](C)[C@@H]5CCC(=O)O)C4=N3)C(CC)=C1C`, the “tumour outcome (control, treated, inhibition, significance)” value is 100%, 72%, 28%, p<0.005 (Carcinogen: 7,12-DIMETHYLBENZ[A]ANTHRACENE, 57-97-6, Dose [Inhibitor]: 0, 16 NMOL IN 0.1 ML ACETONE 2/WK FOR 20 WK APPLIED 40 MIN PRIOR TO EACH PROMOTER DOSE (STUDY DURATION: 21 WK), Route [Inhibitor]: DERMAL, Species: MOUSE, Strain/Sex: ICR/FEMALE, Target Tissue: Type of Lesion: SKIN: TUMOR, Dose [Carcinogen]: 0.19 UMOL IN 0.1 ML ACETONE ONCE, Promoter: 12-O-TETRADECANOYLPHORBOL-13-ACETATE, 16561-29-8) and 100%, 69%, 31%, p<0.005 (Carcinogen: 7,12-DIMETHYLBENZ[A]ANTHRACENE, 57-97-6, Dose [Inhibitor]: 0, 160 NMOL IN 0.1 ML ACETONE 2/WK FOR 20 WK APPLIED 40 MIN PRIOR TO EACH PROMOTER DOSE (STUDY DURATION: 21 WK), Route [Inhibitor]: DERMAL, Species: MOUSE, Strain/Sex: ICR/FEMALE, Target Tissue: Type of Lesion: SKIN: TUMOR, Dose [Carcinogen]: 0.19 UMOL IN 0.1 ML ACETONE ONCE, Promoter: 12-O-TETRADECANOYLPHORBOL-13-ACETATE, 16561-29-8).
